Where two headings read alike, the source gives them in different places.
Columns and labels:
[1] = target: T1, M4 muscarinic receptor (Homo sapiens, UniProt P08173); assay: Functional mobilization of intracellular calcium (FLIPR) in M4-CHO cells; format: cell-based
T1 construct: expressed in transfected cells; host or cells: CHO (M4-CHO)
T1 sequence (P08173 1-479): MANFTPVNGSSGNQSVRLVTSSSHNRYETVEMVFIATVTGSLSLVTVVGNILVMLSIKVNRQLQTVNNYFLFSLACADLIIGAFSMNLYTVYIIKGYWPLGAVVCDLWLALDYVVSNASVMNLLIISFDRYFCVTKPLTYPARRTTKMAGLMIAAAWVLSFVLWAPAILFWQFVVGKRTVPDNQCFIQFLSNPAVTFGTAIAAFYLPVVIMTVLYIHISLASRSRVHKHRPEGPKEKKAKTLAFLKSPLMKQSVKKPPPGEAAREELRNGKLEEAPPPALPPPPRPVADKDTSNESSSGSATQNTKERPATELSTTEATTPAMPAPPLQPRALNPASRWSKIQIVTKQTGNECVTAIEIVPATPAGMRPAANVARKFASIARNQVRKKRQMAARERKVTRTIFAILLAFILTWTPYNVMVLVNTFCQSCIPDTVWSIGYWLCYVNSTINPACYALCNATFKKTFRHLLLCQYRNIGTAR
Summary of the method: (§1)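 Intracellular calcium rise is measured by FLIPR fluorescence over 60 sec in CHO cells carrying human M1 or M4 receptors. Compounds are tested alone as agonists, or pre-incubated 15 min (or co-applied) ahead of carbachol at its EC80 to detect inhibition.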

[2] = target: T2, M1 muscarinic receptor (Homo sapiens, UniProt P11229); assay: Functional mobilization of intracellular calcium (FLIPR) in M1-CHO cells; format: cell-based
T2 construct: expressed in transfected cells; host or cells: CHO (M1-CHO)
T2 sequence (P11229 1-460): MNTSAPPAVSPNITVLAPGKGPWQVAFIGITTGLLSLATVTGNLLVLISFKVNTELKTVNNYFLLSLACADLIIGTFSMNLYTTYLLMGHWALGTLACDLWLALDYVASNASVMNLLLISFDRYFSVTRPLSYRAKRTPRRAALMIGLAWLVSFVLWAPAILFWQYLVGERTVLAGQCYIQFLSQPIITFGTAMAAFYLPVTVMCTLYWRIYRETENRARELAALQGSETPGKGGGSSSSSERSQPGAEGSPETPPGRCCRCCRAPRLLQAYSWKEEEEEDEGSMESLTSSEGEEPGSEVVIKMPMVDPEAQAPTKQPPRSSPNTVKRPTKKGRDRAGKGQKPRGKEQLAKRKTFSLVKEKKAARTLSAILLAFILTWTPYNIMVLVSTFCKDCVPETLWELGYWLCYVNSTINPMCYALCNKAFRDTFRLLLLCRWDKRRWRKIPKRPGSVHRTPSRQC
Summary of the method: as §1

[3] = Table 4, 100% efficacy is the maximum response obtained with the Carbachol control
[4] = Table 4, modulating M4 receptor
[5] = Table 4, modulating M1 receptor
[6] = M4 receptor, calcium mobilization
[7] = M4 receptor, calcium mobilization, read-out: M4 Efficacy
[8] = M1 receptor, calcium mobilization
[9] = M1 receptor, calcium mobilization, read-out: M1 Efficacy
[10] = M4-CHO cells, calcium mobilization (FLIPR)
[11] = M4-CHO cells, calcium mobilization (FLIPR), read-out: M4 Efficacy
[12] = M1-CHO cells, calcium mobilization (FLIPR)
[13] = M1-CHO cells, calcium mobilization (FLIPR), read-out: M1 Efficacy

Compound: CCOC(=O)N1CCC(N2CCC3(CC2)CN(C(C)=O)c2ccc(Br)cc23)CC1 [compound 769]
- Emax [1, 3]: 25 to 100%
- M4 Activity [1, 4]: xxx (activity was measured to be less than 2.0 μM)
- Emax [2, 3]: 25 to 100%
- M1 Activity [2, 5]: xxx (activity was measured to be less than 2.0 μM)

Compound: O=C(OCC(F)(F)F)N1C2CCC1CC(N1CCC3(CC1)COc1ccc(F)cc13)C2 (stereo not shown) [compound 124]
- M4 Activity [1, 6]: xx (activity was measured to be between 0.1 μM and 1.0 μM)
- Emax [1, 7]: < 65%
- M1 Activity [2, 8]: xxx (activity was measured to be less than 0.1 μM)
- Emax [2, 9]: < 65%

Compound: CCCC#CCOC(=O)N1CCC(N2CCC3(CC2)CN(C(=O)N(C)C)c2ccc(F)cc23)CC1 [compound 456]
- Emax [1, 3]: 25 to 100%
- M4 Activity [1, 4]: xxx (activity was measured to be less than 2.0 μM)
- Emax [2, 3]: 25 to 100%
- M1 Activity [2, 5]: xxx (activity was measured to be less than 2.0 μM)

Compound: CCOC(=O)N1CCC(N2CCC3(CC2)CN(C(C)=O)c2c(C)cccc23)CC1 [compound 509]
- Emax [1, 3]: 25 to 100%
- M4 Activity [1, 4]: x (activity was measured to be greater than 5.0 μM)
- Emax [2, 3]: 25 to 100%
- M1 Activity [2, 5]: xx (activity was measured to be between 2.0 μM and 5.0 μM)

Compound: CC(=O)N1CC2(CCN(C3CCC(C(F)(F)F)CC3)CC2)c2cc(F)ccc21 (stereo not shown) [compound 236]
- M4 Activity [1, 6]: xx (activity was measured to be between 0.1 μM and 1.0 μM)
- Emax [1, 7]: 65 to 85%
- M1 Activity [2, 8]: xxx (activity was measured to be less than 0.1 μM)
- Emax [2, 9]: 65 to 85%

Compound: CCOC(=O)N1C2CCC1CC(N1CCC3(CC1)CC(NC(C)=O)c1ccccc13)C2 (stereo not shown) [compound 318]
- M4 Activity [1, 6]: xxx (activity was measured to be less than 0.1 μM)
- Emax [1, 7]: > 85%
- M1 Activity [2, 8]: xxx (activity was measured to be less than 0.1 μM)
- Emax [2, 9]: 65 to 85%

Compound: CCOC(=O)N1CCC(N2CCC3(CC2)CNc2ccccc23)CC1 [compound 352]
- M4 Activity [1, 6]: x (activity was measured to be greater than 1.0 μM)
- Emax [1, 7]: > 85%
- M1 Activity [2, 8]: xxx (activity was measured to be less than 0.1 μM)
- Emax [2, 9]: > 85%

Compound: CCOC(=O)N1C2CCC1CC(N1CCC3(CC1)CN(C(=O)Nc1ccc(F)cc1)c1ccc(F)cc13)C2 (stereo not shown) [compound 197]
- M4 Activity [1, 6]: x (activity was measured to be greater than 1.0 μM)
- Emax [1, 7]: < 65%
- M1 Activity [2, 8]: xx (activity was measured to be between 0.1 μM and 1.0 μM)
- Emax [2, 9]: < 65%

Compound: CCOC(=O)N1CCC(N2CCC3(CC2)CN(C2CCC4(CC2)OCCO4)c2ccc(F)cc23)CC1 [compound 689]
- Emax [1, 3]: 25 to 100%
- M4 Activity [1, 4]: xxx (activity was measured to be less than 2.0 μM)
- Emax [2, 3]: > 100%
- M1 Activity [2, 5]: xxx (activity was measured to be less than 2.0 μM)

Compound: C#CCOC(=O)N1CCC(N2CCC3(CC2)CN(C(C)=O)c2ccc(C)cc23)CC1 [compound 81]
- M4 Activity [1, 6]: x (activity was measured to be greater than 1.0 μM)
- Emax [1, 7]: < 65%
- M1 Activity [2, 8]: xx (activity was measured to be between 0.1 μM and 1.0 μM)
- Emax [2, 9]: < 65%

Compound: C#CCCC(=O)N1CCC(N2CCC3(CC2)CN(C(=O)N(C)C)c2ccc(F)cc23)CC1 [compound 553]
- Emax [1, 3]: < 25%
- M4 Activity [1, 4]: xxx (activity was measured to be less than 2.0 μM)
- Emax [2, 3]: 25 to 100%
- M1 Activity [2, 5]: xxx (activity was measured to be less than 2.0 μM)

Compound: Fc1ccc2c(c1)C1(CCN(C[C@@H]3C[C@H]4CC[C@H]3O4)CC1)CN2 [compound 429]
- EC50 [1, 10]: > 1000 nM
- Emax [1, 11]: < 65%
- EC50 [2, 12]: 100 to 1000 nM
- Emax [2, 13]: < 65%

Compound: CCCC1CCC(N2CCC3(CC2)CNc2ccc(F)cc23)CC1 (stereo not shown) [compound 328]
- M4 Activity [1, 6]: x (activity was measured to be greater than 1.0 μM)
- Emax [1, 7]: 65 to 85%
- M1 Activity [2, 8]: xx (activity was measured to be between 0.1 μM and 1.0 μM)
- Emax [2, 9]: < 65%

Compound: CCCOC(=O)N1CCC(CN2CCC3(CC2)CN(C(C)=O)c2ccc(F)cc23)CC1 [compound 98]
- M4 Activity [1, 6]: xx (activity was measured to be between 0.1 μM and 1.0 μM)
- Emax [1, 7]: < 65%
- M1 Activity [2, 8]: xxx (activity was measured to be less than 0.1 μM)
- Emax [2, 9]: 65 to 85%

Compound: CCCOC(=O)N1C2CCC1CC(N1CCC3(CC1)CN(C(=O)O[C@@H]1CCOC1)c1ccc(F)cc13)C2 (stereo partly shown) [compound 115]
- M4 Activity [1, 6]: xx (activity was measured to be between 0.1 μM and 1.0 μM)
- Emax [1, 7]: < 65%
- M1 Activity [2, 8]: xxx (activity was measured to be less than 0.1 μM)
- Emax [2, 9]: 65 to 85%

Compound: CCNC(=O)N1CC2(CCN(C3CCN(C(=O)OCC)CC3)CC2)c2ccccc21 [compound 944]
- Emax [1, 3]: 25 to 100%
- M4 Activity ([1]; Table 4, M4 receptor, calcium mobilization (FLIPR)): xxx (activity was measured to be less than 2.0 μM)
- Emax [2, 3]: 25 to 100%
- M1 Activity ([2]; Table 4, M1 receptor, calcium mobilization (FLIPR)): xxx (activity was measured to be less than 2.0 μM)

Compound: CCOC(=O)N1CCC(N2CCC3(CC2)CN(C(=O)c2cc(C)oc2C)c2ccc(F)cc23)CC1 [compound 335]
- M4 Activity [1, 6]: x (activity was measured to be greater than 1.0 μM)
- Emax [1, 7]: < 65%
- M1 Activity [2, 8]: x (activity was measured to be greater than 1.0 μM)
- Emax [2, 9]: < 65%

Compound: C#CC(=O)N1CCC(N2CCC3(CC2)CN(C(=O)N(C)C)c2ccc(F)cc23)CC1 [compound 574]
- Emax [1, 3]: 25 to 100%
- M4 Activity [1, 4]: xxx (activity was measured to be less than 2.0 μM)
- Emax [2, 3]: 25 to 100%
- M1 Activity [2, 5]: xx (activity was measured to be between 2.0 μM and 5.0 μM)

Compound: COCCOC(=O)N1C2CCC1CC(N1CCC3(CC1)CN(C(=O)O[C@@H]1CCOC1)c1ccc(F)cc13)C2 (stereo partly shown) [compound 162]
- M4 Activity [1, 6]: x (activity was measured to be greater than 1.0 μM)
- Emax [1, 7]: > 85%
- M1 Activity [2, 8]: xxx (activity was measured to be less than 0.1 μM)
- Emax [2, 9]: 65 to 85%

Compound: C#CCOC(=O)N1C2CCC1CC(N1CCC3(CC1)CN(C(C)=O)c1ccccc13)C2 (stereo not shown) [compound 516]
- Emax [1, 3]: 25 to 100%
- M4 Activity [1, 4]: xxx (activity was measured to be less than 2.0 μM)
- Emax [2, 3]: 25 to 100%
- M1 Activity [2, 5]: xxx (activity was measured to be less than 2.0 μM)

Compound: CC(=O)N[C@H]1CCC2(CCN(CCC3CCCCC3)CC2)c2ccccc21 [compound 568]
- Emax [1, 3]: < 25%
- M4 Activity [1, 4]: xxx (activity was measured to be less than 2.0 μM)
- Emax [2, 3]: 25 to 100%
- M1 Activity [2, 5]: xxx (activity was measured to be less than 2.0 μM)

Compound: CCOC(=O)N1CCC(N2CCC3(CC2)CN(C(=O)OCCOC)c2ccc(F)cc23)CC1 [compound 38]
- M4 Activity [1, 6]: xxx (activity was measured to be less than 0.1 μM)
- Emax [1, 7]: > 85%
- M1 Activity [2, 8]: xxx (activity was measured to be less than 0.1 μM)
- Emax [2, 9]: > 85%

Compound: Cc1ccc2c(c1)C1(CCN(C3CC4CCC3C4)CC1)CN2S(=O)(=O)c1ccccc1 (stereo not shown) [compound 354]
- M4 Activity [1, 6]: x (activity was measured to be greater than 1.0 μM)
- Emax [1, 7]: 65 to 85%
- M1 Activity [2, 8]: x (activity was measured to be greater than 1.0 μM)
- Emax [2, 9]: 65 to 85%

Compound: CN(C)C(=O)N1CC2(CCN(C3CCN(c4ncccn4)CC3)CC2)c2cc(F)ccc21 [compound 790]
- Emax [1, 3]: 25 to 100%
- M4 Activity [1, 4]: xxx (activity was measured to be less than 2.0 μM)
- Emax [2, 3]: 25 to 100%
- M1 Activity [2, 5]: xx (activity was measured to be between 2.0 μM and 5.0 μM)

Compound: CCOC(=O)N1CCC(N2CCC3(CC2)CN(C(=O)N(CC)CC)c2ccccc23)CC1 [compound 750]
- Emax [1, 3]: 25 to 100%
- M4 Activity [1, 4]: xxx (activity was measured to be less than 2.0 μM)
- Emax [2, 3]: 25 to 100%
- M1 Activity [2, 5]: xxx (activity was measured to be less than 2.0 μM)

Compound: CC#CCOC(=O)N1CCC(N2CCC3(CC2)CN(C(=O)N(C)C)c2ccc(F)cc23)CC1 [compound 353]
- M4 Activity [1, 6]: x (activity was measured to be greater than 1.0 μM)
- Emax [1, 7]: 65 to 85%
- M1 Activity [2, 8]: xxx (activity was measured to be less than 0.1 μM)
- Emax [2, 9]: > 85%

Compound: CC(C)(C)COC(=O)N1C2CCC1CC(N1CCC3(CC1)COc1ccc(F)cc13)C2 (stereo not shown) [compound 247]
- M4 Activity [1, 6]: x (activity was measured to be greater than 1.0 μM)
- Emax [1, 7]: > 85%
- M1 Activity [2, 8]: xx (activity was measured to be between 0.1 μM and 1.0 μM)
- Emax [2, 9]: 65 to 85%

Compound: c1ccc2c(c1)NCC21CCN(C2CCCCC2)CC1 [compound 375]
- EC50 [1, 10]: < 100 nM
- Emax [1, 11]: 65 to 85%
- EC50 [2, 12]: < 100 nM
- Emax [2, 13]: > 85%
